# Test results taken from PMC2896053 (Pharmaceutical research, 2009).
# “Also recorded” adds a separate entry of the source. Where a name gives a salt, the structure may show the parent alone.
# How the values were obtained:
# [1] = test system: BBB transport of 125I-ANG1005; test: brain 125I-ANG1005 uptake with co-perfused transport inhibitors; type: in vivo, rat; details: P>0.05
# [2] = male, Sprague Dawley, rat, in vivo
# [3] = female, NuNu, mouse, in vivo, 30 min
# [4] = cited from earlier work
# [5] = capillary depletion after in situ brain perfusion; type: in vivo, rat; details: 120 s perfusion, 30 s post wash
# [6] = molecular target: low density lipoprotein receptor-related protein (LRP) (Rattus norvegicus, UniProt G3V928); test: brain 125I-ANG1005 uptake with co-perfused unlabeled angiopep-2 or LRP ligands; type: in vivo; details: co-perfusion 120 s with 10 or 100 μM unlabeled angiopep-2, P<0.05
# Sequence of low density lipoprotein receptor-related protein (LRP) (G3V928 20-3944 limits assumed): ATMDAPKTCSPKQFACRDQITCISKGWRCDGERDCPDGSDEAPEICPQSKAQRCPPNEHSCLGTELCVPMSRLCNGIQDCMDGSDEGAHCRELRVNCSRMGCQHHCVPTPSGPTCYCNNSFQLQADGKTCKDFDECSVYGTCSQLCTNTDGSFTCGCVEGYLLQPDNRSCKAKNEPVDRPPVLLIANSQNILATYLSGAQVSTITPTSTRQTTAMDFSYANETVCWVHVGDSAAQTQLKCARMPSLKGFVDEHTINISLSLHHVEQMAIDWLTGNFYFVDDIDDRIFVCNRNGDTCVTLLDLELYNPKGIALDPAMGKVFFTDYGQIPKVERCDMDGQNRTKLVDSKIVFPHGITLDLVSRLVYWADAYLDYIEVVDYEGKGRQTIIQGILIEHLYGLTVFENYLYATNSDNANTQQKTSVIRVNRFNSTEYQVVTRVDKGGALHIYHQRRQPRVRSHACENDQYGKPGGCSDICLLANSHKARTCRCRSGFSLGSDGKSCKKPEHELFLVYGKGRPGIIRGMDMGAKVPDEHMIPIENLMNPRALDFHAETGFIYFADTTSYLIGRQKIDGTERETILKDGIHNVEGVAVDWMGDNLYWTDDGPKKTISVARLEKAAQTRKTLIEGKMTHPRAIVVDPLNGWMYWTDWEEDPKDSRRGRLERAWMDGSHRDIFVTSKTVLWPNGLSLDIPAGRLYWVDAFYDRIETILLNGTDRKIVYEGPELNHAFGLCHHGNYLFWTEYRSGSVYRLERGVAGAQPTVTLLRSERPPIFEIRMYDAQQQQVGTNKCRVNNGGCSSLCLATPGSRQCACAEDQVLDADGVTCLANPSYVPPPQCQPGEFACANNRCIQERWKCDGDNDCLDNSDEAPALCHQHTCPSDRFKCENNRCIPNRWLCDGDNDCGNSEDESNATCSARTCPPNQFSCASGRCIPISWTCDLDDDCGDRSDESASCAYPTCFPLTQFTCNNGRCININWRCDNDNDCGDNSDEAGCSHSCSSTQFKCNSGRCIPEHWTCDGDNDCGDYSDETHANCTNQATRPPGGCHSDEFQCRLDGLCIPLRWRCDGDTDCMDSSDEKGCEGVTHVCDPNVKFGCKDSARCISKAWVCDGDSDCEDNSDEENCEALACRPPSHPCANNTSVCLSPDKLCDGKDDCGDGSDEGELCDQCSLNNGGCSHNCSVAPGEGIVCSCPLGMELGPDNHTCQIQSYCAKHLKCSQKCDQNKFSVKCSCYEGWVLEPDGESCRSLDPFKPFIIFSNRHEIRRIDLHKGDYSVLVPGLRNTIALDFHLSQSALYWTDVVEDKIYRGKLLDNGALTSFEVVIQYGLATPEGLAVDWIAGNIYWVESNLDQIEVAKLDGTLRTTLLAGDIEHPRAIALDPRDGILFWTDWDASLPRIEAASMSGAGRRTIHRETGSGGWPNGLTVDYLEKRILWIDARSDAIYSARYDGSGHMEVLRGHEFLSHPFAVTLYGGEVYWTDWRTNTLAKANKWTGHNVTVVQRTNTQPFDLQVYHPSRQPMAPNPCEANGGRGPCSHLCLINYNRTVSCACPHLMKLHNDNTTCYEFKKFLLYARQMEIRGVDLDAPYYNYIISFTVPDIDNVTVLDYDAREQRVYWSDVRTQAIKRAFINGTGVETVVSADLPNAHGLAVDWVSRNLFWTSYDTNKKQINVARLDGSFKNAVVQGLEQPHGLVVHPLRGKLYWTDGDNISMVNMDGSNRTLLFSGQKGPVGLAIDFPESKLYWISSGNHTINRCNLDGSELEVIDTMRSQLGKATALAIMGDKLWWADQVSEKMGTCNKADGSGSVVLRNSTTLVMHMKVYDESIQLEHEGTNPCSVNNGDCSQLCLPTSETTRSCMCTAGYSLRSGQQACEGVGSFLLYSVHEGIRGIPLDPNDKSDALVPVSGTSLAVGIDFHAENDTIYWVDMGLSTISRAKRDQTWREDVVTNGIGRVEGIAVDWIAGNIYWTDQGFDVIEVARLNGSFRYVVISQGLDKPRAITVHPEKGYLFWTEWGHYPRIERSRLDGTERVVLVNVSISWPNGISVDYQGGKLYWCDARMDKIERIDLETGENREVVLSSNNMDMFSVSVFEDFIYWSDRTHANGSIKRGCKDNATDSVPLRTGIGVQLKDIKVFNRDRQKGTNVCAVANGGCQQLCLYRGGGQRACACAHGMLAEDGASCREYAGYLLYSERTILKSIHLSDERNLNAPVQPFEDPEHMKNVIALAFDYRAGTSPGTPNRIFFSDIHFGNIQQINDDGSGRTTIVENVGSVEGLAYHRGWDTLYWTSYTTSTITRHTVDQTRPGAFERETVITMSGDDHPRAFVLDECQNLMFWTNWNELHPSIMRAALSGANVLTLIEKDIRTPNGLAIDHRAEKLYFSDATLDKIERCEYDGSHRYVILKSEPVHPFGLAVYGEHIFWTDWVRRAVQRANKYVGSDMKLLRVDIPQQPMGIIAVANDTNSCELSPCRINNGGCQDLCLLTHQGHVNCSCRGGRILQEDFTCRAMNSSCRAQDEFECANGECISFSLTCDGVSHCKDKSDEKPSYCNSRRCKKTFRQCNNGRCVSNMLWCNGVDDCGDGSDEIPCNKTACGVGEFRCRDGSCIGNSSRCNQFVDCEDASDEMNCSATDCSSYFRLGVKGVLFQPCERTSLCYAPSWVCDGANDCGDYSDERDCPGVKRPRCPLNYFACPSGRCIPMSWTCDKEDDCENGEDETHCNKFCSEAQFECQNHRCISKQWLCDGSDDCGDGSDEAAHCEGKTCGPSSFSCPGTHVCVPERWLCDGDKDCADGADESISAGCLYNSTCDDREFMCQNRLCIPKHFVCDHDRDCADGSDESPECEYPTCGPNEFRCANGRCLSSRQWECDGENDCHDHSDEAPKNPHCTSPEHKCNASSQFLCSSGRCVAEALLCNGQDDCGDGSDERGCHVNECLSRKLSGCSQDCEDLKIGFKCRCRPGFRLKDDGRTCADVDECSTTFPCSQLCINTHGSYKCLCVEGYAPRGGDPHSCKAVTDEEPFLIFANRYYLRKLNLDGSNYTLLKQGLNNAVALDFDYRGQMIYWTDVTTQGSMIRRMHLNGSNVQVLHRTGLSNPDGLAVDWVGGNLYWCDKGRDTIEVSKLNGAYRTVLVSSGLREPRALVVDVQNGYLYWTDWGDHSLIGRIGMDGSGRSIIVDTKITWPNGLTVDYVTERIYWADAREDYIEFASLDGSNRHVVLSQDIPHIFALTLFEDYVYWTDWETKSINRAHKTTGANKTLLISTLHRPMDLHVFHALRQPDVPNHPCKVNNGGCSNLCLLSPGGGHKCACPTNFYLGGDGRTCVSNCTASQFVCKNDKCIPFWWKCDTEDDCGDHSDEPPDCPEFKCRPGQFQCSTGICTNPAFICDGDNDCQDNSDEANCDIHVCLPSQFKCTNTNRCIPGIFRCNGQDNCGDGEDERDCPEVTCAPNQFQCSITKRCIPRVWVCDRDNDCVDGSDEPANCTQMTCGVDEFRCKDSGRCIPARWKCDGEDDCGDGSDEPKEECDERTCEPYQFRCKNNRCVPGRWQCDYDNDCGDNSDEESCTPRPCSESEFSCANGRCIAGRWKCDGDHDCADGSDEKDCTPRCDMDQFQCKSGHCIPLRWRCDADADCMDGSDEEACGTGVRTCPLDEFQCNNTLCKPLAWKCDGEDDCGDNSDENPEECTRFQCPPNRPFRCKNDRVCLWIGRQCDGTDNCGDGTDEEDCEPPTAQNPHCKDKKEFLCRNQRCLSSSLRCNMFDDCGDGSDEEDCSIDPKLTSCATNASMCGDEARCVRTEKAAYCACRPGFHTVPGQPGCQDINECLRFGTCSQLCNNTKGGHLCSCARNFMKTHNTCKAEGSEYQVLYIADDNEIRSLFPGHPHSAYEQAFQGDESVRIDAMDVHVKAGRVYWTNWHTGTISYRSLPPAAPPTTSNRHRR
# Sequence of low density lipoprotein receptor-related protein (LRP) (G3V928 3945-4545 limits assumed): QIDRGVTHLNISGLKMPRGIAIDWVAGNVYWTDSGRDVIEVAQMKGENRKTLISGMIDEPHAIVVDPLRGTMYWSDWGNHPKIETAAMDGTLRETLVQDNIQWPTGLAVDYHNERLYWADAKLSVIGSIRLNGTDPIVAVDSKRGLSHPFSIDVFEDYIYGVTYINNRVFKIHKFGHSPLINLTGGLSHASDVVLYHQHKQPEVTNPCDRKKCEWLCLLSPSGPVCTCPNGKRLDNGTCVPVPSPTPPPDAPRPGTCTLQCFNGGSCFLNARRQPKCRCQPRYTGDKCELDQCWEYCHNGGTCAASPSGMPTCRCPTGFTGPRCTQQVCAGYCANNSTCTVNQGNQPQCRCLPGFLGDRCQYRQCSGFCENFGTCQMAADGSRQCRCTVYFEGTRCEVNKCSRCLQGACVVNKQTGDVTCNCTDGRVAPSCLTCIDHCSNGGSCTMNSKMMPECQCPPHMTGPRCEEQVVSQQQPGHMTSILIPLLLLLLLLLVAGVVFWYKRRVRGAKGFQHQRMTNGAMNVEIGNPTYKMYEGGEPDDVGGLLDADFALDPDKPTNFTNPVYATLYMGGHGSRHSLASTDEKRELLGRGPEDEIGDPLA
# [7] = test system: brain endothelial monolayer system; details: cited from earlier work
# [8] = cited from earlier work; remark: listed apart in the source
# [9] = in situ rat brain perfusion, BBB transfer coefficient; details: P>0.05
molecule,measurement,setting,value
COc1ccc2c(c1)c(CC(=O)O)c(C)n2C(=O)c1ccc(Cl)cc1 [indomethacin],effect on Kin for brain uptake of 125I-ANG1005,[1]; co-perfusion with indomethacin 300 μM,None of the four agents produced a statistically significant decrease; also recorded: failed to alter
N[C@@H](Cc1ccccc1)C(=O)O [L-phenylalanine],effect on Kin for brain uptake of 125I-ANG1005,[1]; co-perfusion with L-phenylalanine 1 mM,None of the four agents produced a statistically significant decrease; also recorded: not inhibited
CC(=O)O[C@H]1C(=O)[C@@]2(C)[C@H]([C@H](OC(=O)c3ccccc3)[C@]3(O)C[C@H](OC(=O)[C@H](O)[C@@H](NC(=O)c4ccccc4)c4ccccc4)C(C)=C1C3(C)C)[C@]1(OC(C)=O)CO[C@@H]1C[C@@H]2O [paclitaxel],BBB transfer coefficient (Kin) for brain uptake,[2],8.5 ± 0.5 × 10^−5 mL/s/g
same,lowering of brain drug content by vascular correction,[3],~ 84%
same,rise of brain paclitaxel concentrations on inhibition of active efflux transport,[4],6–10 fold
angiopep-2,brain tracer in parenchymal fraction,[5],> 70%
same,brain tracer in vascular (capillary) pellet,[5],< 30%
same,reduction of brain 125I-ANG1005 uptake,[6],30–40%
same,transcytosis across a brain endothelial monolayer system in vitro,[7],enhanced transcytosis
same,brain uptake by in situ perfusion,[8],improved brain uptake
same,brain 14C-sucrose space in the presence of the tracer (BBB permeability),[9],not altered from control
poly-L-lysine,effect on Kin for brain uptake of 125I-ANG1005,[1]; co-perfusion with poly-l-lysine 25 μM,not inhibited
same,effect on Kin for brain uptake of 125I-ANG1005,"[1]; co-perfusion with poly-l-lysine 25 μM, listed as poly-l-lysine",None of the four agents produced a statistically significant decrease
"OC[C@H]1O[C@@](CO)(O[C@H]2O[C@H](CO)[C@@H](O)[C@H](O)[C@H]2O)[C@@H](O)[C@@H]1O [^14C-sucrose, sucrose]",brain vascular volume Vv (brain distribution space of 14C-sucrose),[2],1.2 ± 0.2 × 10^−2 mL/g
"CN(C)CCCN1c2ccccc2Sc2ccc(Cl)cc21 [chlorpromazine, chlorpromazine hydrochloride]",effect on Kin for brain uptake of 125I-ANG1005,[1]; co-perfusion with chlorpromazine 100 μM,None of the four agents produced a statistically significant decrease; also recorded: failed to alter
